Results published in PubChem BioAssay AID248 (DTP/NCI, 2004).
Inconclusive results and toxic doses are left out. Rule as the data show it: active = T/C of 150% or more; inactive = T/C below 125%.

Test system: L1210 leukemia ip in BDF1 mice, survival T/C
Test: NCI In Vivo Anticancer Drug Screen. Data for tumor model L1210 Leukemia (intraperitoneal) in B6D2F1 (BDF1) mice
Details: endpoint: mean survival time, higher = longer survival
Summary of the method: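 Transplantable tumor model; survival measured in treated vs vehicle control mice. Value = treated/control.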

[1] = dose: 100.0 mg/kg/injection, schedule: Q01DX009 (ip), vehicle: Klucel (hydroxypropylcellulose) (HPC)
[2] = dose: 100.0 mg/kg/injection, schedule: Q04DX003 (ip), vehicle: Klucel (hydroxypropylcellulose) (HPC)
[3] = dose: 200.0 mg/kg/injection, schedule: Q01DX009 (ip), vehicle: Klucel (hydroxypropylcellulose) (HPC)
[4] = dose: 200.0 mg/kg/injection, schedule: Q04DX003 (ip), vehicle: Klucel (hydroxypropylcellulose) (HPC)
[5] = dose: 400.0 mg/kg/injection, schedule: Q01DX009 (ip), vehicle: Klucel (hydroxypropylcellulose) (HPC)
[6] = dose: 400.0 mg/kg/injection, schedule: Q04DX003 (ip), vehicle: Klucel (hydroxypropylcellulose) (HPC)
[7] = dose: 400.0 mg/kg/injection, schedule: Q04DX003 (ip), vehicle: saline with Tween-80
[8] = dose: 50.0 mg/kg/injection, schedule: Q04DX003 (ip), vehicle: saline
[9] = dose: 100.0 mg/kg/injection, schedule: Q01DX001 (ip), vehicle: saline
[10] = dose: 200.0 mg/kg/injection, schedule: Q01DX001 (ip), vehicle: saline
[11] = dose: 100.0 mg/kg/injection, schedule: Q04DX003 (ip), vehicle: saline with Tween-80
[12] = dose: 100.0 mg/kg/injection, schedule: Q04DX003 (ip), vehicle: saline

Measured: T/C

COc1cccc(C(=O)CC(O)(C(F)(F)F)C(F)(F)F)c1
inactive: dose: 50.0 mg/kg/injection, schedule: Q04DX003 (ip), vehicle: other 100 % of control | dose: 100.0 mg/kg/injection, schedule: Q04DX003 (ip), vehicle: other 96 % of control | dose: 200.0 mg/kg/injection, schedule: Q04DX003 (ip), vehicle: other 98 % of control | dose: 400.0 mg/kg/injection, schedule: Q04DX003 (ip), vehicle: other 104 % of control

O=C(O)c1cc(=O)cc(C(=O)O)[nH]1
inactive: [1] 102 % of control | [2] 102 % of control | [3] 96 % of control | [4] 96 % of control | [5] 92 % of control | [6] 104 % of control

CC(C)c1ccc(NC(=O)Nc2cc(Cl)ccc2Cl)cc1
inactive: dose: 100.0 mg/kg/injection, schedule: Q01DX009 (ip), vehicle: gum acacia 89 % of control | dose: 200.0 mg/kg/injection, schedule: Q04DX003 (ip), vehicle: gum acacia 89 % of control | dose: 400.0 mg/kg/injection, schedule: Q01DX009 (ip), vehicle: gum acacia 89 % of control | dose: 400.0 mg/kg/injection, schedule: Q04DX003 (ip), vehicle: gum acacia 87 % of control

C1=C(c2ccccc2)C(c2ccccc2)c2ccccc21 (stereo unspecified)
inactive: dose: 12.5 mg/kg/injection, schedule: Q04DX002 (ip), vehicle: saline with Tween-80 90 % of control | dose: 25.0 mg/kg/injection, schedule: Q04DX002 (ip), vehicle: saline with Tween-80 98 % of control | dose: 50.0 mg/kg/injection, schedule: Q04DX002 (ip), vehicle: saline with Tween-80 90 % of control | [7] 90 % of control

Clc1ccc(CSC2=NCCN2)cc1
inactive: dose: 12.5 mg/kg/injection, schedule: Q04DX003 (ip), vehicle: saline 94 % of control | dose: 25.0 mg/kg/injection, schedule: Q04DX003 (ip), vehicle: saline 93 % of control | [8] 98 % of control

Nc1ccc(Nc2ccncc2)cc1
inactive: dose: 50.0 mg/kg/injection, schedule: Q01DX009 (ip), vehicle: Klucel (hydroxypropylcellulose) (HPC) 98 % of control | [1] 97 % of control | [2] 93 % of control | [3] 98 % of control | [4] 95 % of control

CC(=O)Nc1ccc2c(c1)C(=O)NC2=O
inactive: dose: 100.0 mg/kg/injection, schedule: Q01DX001 (ip), vehicle: Klucel (hydroxypropylcellulose) (HPC) 93 % of control | dose: 200.0 mg/kg/injection, schedule: Q01DX001 (ip), vehicle: Klucel (hydroxypropylcellulose) (HPC) 90 % of control | dose: 400.0 mg/kg/injection, schedule: Q01DX001 (ip), vehicle: Klucel (hydroxypropylcellulose) (HPC) 90 % of control

CCC(Br)(CC)C(=O)c1ccc(OCC(=O)O)c(Cl)c1Cl
inactive: dose: 50.0 mg/kg/injection, schedule: Q01DX001 (ip), vehicle: saline 104 % of control | [9] 96 % of control | [10] 102 % of control

CC(C)C(CN)(CCN1CCCCC1)Cc1cccc2ccccc12 (stereo unspecified)
inactive: [11] 97 % of control

Nc1nc(SCC(=O)c2ccc(Cl)cc2)c2c(n1)SCC(c1ccc(Cl)cc1)=N2
inactive: dose: 100.0 mg/kg/injection, schedule: Q01DX001 (ip), vehicle: saline with Tween-80 97 % of control | dose: 200.0 mg/kg/injection, schedule: Q01DX001 (ip), vehicle: saline with Tween-80 101 % of control | dose: 400.0 mg/kg/injection, schedule: Q01DX001 (ip), vehicle: saline with Tween-80 92 % of control

C/C=C(\C)C(=O)Nc1cccc(O)c1
inactive: [11] 90 % of control | dose: 200.0 mg/kg/injection, schedule: Q04DX003 (ip), vehicle: saline with Tween-80 93 % of control | [7] 90 % of control

Cc1cccc(C(=O)OCc2ccccc2CN(C)C)c1
inactive: dose: 75.0 mg/kg/injection, schedule: Q04DX002 (ip), vehicle: Klucel (hydroxypropylcellulose) (HPC) 91 % of control | dose: 150.0 mg/kg/injection, schedule: Q04DX002 (ip), vehicle: Klucel (hydroxypropylcellulose) (HPC) 94 % of control | dose: 300.0 mg/kg/injection, schedule: Q04DX002 (ip), vehicle: Klucel (hydroxypropylcellulose) (HPC) 94 % of control

CC1CNC(=S)O1 (stereo unspecified)
inactive: [8] 96 % of control | [12] 98 % of control | dose: 200.0 mg/kg/injection, schedule: Q04DX003 (ip), vehicle: saline 101 % of control | dose: 400.0 mg/kg/injection, schedule: Q04DX003 (ip), vehicle: saline 108 % of control

Cc1nnc(NS(=O)(=O)c2ccc(N=Nc3ccc(O)c4ncccc34)cc2)s1
inactive: [9] 105 % of control | [10] 102 % of control | dose: 400.0 mg/kg/injection, schedule: Q01DX001 (ip), vehicle: saline 96 % of control

CC[C@@H](C(=O)[C@@H](C)[C@@H](O)[C@H](C)CCc1ccc(C)c(O)c1C(=O)O)[C@H]1O[C@](CC)([C@H]2CC[C@](O)(CC)[C@H](C)O2)C[C@@H]1C
inactive: dose: 3.12 mg/kg/injection, schedule: Q01DX009 (ip), vehicle: Klucel (hydroxypropylcellulose) (HPC) 93 % of control | dose: 6.25 mg/kg/injection, schedule: Q01DX009 (ip), vehicle: Klucel (hydroxypropylcellulose) (HPC) 96 % of control | dose: 12.5 mg/kg/injection, schedule: Q01DX009 (ip), vehicle: Klucel (hydroxypropylcellulose) (HPC) 94 % of control | dose: 25.0 mg/kg/injection, schedule: Q01DX009 (ip), vehicle: Klucel (hydroxypropylcellulose) (HPC) 94 % of control

CCCCCCCCN(CCCCCCCC)CC(O)c1ccc2cc(Br)c3ccccc3c2c1 (stereo unspecified)
inactive: dose: 100.0 mg/kg/injection, schedule: Q04DX003 (ip), vehicle: acetone 113 % of control | dose: 200.0 mg/kg/injection, schedule: Q04DX003 (ip), vehicle: acetone 120 % of control | dose: 400.0 mg/kg/injection, schedule: Q04DX003 (ip), vehicle: acetone 103 % of control

O=C(NCCCCCCCCCCNC(=O)Nc1ccc(C2=NCCN2)cc1)Nc1ccc(C2=NCCN2)cc1
inactive: dose: 62.5 mg/kg/injection, schedule: Q01DX Z (ip), vehicle: carboxymethylcellulose (CMC) 98 % of control | dose: 125.0 mg/kg/injection, schedule: Q01DX Z (ip), vehicle: carboxymethylcellulose (CMC) 98 % of control | dose: 250.0 mg/kg/injection, schedule: Q01DX Z (ip), vehicle: carboxymethylcellulose (CMC) 106 % of control | dose: 500.0 mg/kg/injection, schedule: Q01DX Z (ip), vehicle: carboxymethylcellulose (CMC) 114 % of control

CN(CC1CCCO1)C(=O)Nc1ccc(Cl)cc1 (stereo unspecified)
inactive: dose: 100.0 mg/kg/injection, schedule: Q01DX009 (ip), vehicle: carboxymethylcellulose (CMC) 107 % of control | dose: 200.0 mg/kg/injection, schedule: Q01DX009 (ip), vehicle: carboxymethylcellulose (CMC) 96 % of control | dose: 400.0 mg/kg/injection, schedule: Q01DX009 (ip), vehicle: carboxymethylcellulose (CMC) 104 % of control

NOC(=O)c1cccc(Cl)c1
inactive: dose: 100.0 mg/kg/injection, schedule: Q04DX002 (ip), vehicle: saline with Tween-80 94 % of control | dose: 200.0 mg/kg/injection, schedule: Q04DX002 (ip), vehicle: saline with Tween-80 105 % of control | dose: 400.0 mg/kg/injection, schedule: Q04DX002 (ip), vehicle: saline with Tween-80 96 % of control

CC(=O)OC1CCC2(C)C3=C(CCC2C1(C)C)C1CCC(C(C)CCC=C(C)C)C1(C)CC3 (stereo unspecified)
inactive: [2] 96 % of control | [4] 96 % of control

COc1cc(C(=O)Nc2cc(C(F)(F)F)ccc2Cl)cc(OC)c1OC
inactive: [1] 106 % of control | [3] 100 % of control | [5] 97 % of control

CCOC(=O)C(=O)N(CC)CC
inactive: dose: 100.0 mg/kg/injection, schedule: Q04DX002 (ip), vehicle: Klucel (hydroxypropylcellulose) (HPC) 98 % of control | dose: 200.0 mg/kg/injection, schedule: Q04DX002 (ip), vehicle: Klucel (hydroxypropylcellulose) (HPC) 98 % of control | dose: 400.0 mg/kg/injection, schedule: Q04DX002 (ip), vehicle: Klucel (hydroxypropylcellulose) (HPC) 88 % of control

Nc1ccc(N=Nc2ccccc2)c(N)n1
inactive: [2] 89 % of control | [12] 97 % of control | [4] 90 % of control

COC(=O)C1CCCC23CC(CC12)C(C)(C)C3Br (stereo unspecified)
inactive: [1] 94 % of control | [2] 97 % of control | [3] 97 % of control | [4] 90 % of control | [5] 90 % of control | [6] 97 % of control

CC(CNN=C(N)N)NN=C(N)N (stereo unspecified)
inactive: dose: 30.0 mg/kg/injection, schedule: Q01DX Z (ip), vehicle: saline 116 % of control | dose: 60.0 mg/kg/injection, schedule: Q01DX Z (ip), vehicle: saline 100 % of control | dose: 120.0 mg/kg/injection, schedule: Q01DX Z (ip), vehicle: saline 96 % of control
